US12428416B2 (California Institute of Technology, priority 2018, dated 2025)
Read-outs that look alike come from different tables or passages of the source.

Legend:
ERK1 = ERK1 (Homo sapiens, UniProt P27361); experiment: ERK1 and 2 Enzymatic Inhibition Assay (ERK1); format: biochemical; conditions: 10 assay concentrations 2×10^−6 M to 6×10^−11 M, 1% DMSO
Experimental: (§1) ERK1 and 2 Enzymatic Inhibition Assay
(§2) For the Ki determination assay, 200 μM stock solutions of compounds were subjected to a serial, semi-logarithmic dilution using 100% DMSO as a solvent. 10 distinct concentrations were prepared, with a dilution endpoint of 6×10^−9 M in 100% DMSO. 100% DMSO was used as a control. 10 μL from each of the serial dilutions were aliquoted into separate wells of a 96-well plate and 90 μL of water were added to each of those wells. The plate was shaken thoroughly, and 5 μL from each of the plate's wells were transferred into wells of the assay plate. The final volume of wells in the assay plate was 50 μL. All compounds were tested at 10 assay concentrations in the range from 2×10^−6 M to 6×10^−11 M. The final DMSO concentration in the wells of the assay plate was 1% in all cases.

[1] = tested on: drug-resistant cell lines of Table 4; experiment: Cell line growth retardation assay, average over resistant cohort; format: cell-based, Human; conditions: geometric mean of IC50s over resistant cohort (Table 4), 6 days growth, read-out: AvgRes IC50
Experimental: (§3) Cell Line Growth Retardation Assay
(§4) Cells were seeded at densities of 1,000-5,000 cells per well in 48-well tissue culture plates. After a 24 h rest period, cells were treated with compound at 10 μM, 2 μM, 0.4 μM, 0.08 μM, 0.016 μM, and 0.0032 μM. A group of cells were treated with the vehicle in which the compound was prepared and served as a control. The cells were grown in the presence of compounds for 6 days and were counted on day 0 and day 6. All cell counting was performed using a Synentec Cellavista plate imager. […] Growth inhibition was calculated as a ratio of cell population doublings in the presence of compound versus the absence of compound. […] IC50 values for each compound were calculated by fitting curves to data points from each dose-response assay using the Proc NLIN function in SAS for Windows version 9.2 (SAS Institute, Inc.).
(§5) Designation of Sensitivity and Resistant Cohorts and Calculation of Average IC50 Values
(§6) Human cancer cell lines were grouped as “sensitive” or “resistant” to ERK1 inhibition based on whether their growth was retarded by KO-947 (i.e., 1,5,6,8-tetrahydro-6-(phenylmethyl)-3-(4-pyridinyl)-7H-pyrazolo[4,3-g]quinazolin-7-one) and SCH772984 (i.e., (3R)-1-[2-oxo-2-[4-[4-(2-pyrimidinyl)phenyl]-1-piperazinyl]ethyl]-N-[3-(4-pyridinyl)-1H-indazol-5-yl]-3-pyrrolidinecarboxamide) (data not shown; see Table 4). These sensitive and resistant cohorts were interrogated for response to each compound, and IC50s were calculated for each cell line using the same technique described above. Average IC50s for the sensitive and resistant cohorts were calculated as geometric means of the group.

[2] = tested on: drug-sensitive cell lines of Table 4; experiment: Cell line growth retardation assay, average over sensitive cohort; format: cell-based, Human; conditions: geometric mean of IC50s over sensitive cohort (Table 4), 6 days growth, read-out: AvgSens IC50
Experimental: as §3, §4, §5, §6

ERK2 = ERK2 (Homo sapiens, UniProt P28482); experiment: ERK1 and 2 Enzymatic Inhibition Assay (ERK2); format: biochemical; conditions: 10 assay concentrations 2×10^−6 M to 6×10^−11 M, 1% DMSO
Experimental: as §1, §2

Chain of ERK1 (P27361 whole entry): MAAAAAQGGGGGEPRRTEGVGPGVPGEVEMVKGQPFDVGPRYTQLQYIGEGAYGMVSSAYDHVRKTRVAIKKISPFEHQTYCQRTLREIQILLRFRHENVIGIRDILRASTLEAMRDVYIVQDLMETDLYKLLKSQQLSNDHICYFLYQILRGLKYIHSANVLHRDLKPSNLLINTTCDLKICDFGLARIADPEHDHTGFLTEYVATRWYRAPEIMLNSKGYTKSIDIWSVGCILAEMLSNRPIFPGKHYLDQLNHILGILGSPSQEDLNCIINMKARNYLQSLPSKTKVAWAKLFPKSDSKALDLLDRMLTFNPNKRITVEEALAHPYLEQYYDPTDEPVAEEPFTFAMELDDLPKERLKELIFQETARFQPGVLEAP
Chain of ERK2 (P28482 whole entry): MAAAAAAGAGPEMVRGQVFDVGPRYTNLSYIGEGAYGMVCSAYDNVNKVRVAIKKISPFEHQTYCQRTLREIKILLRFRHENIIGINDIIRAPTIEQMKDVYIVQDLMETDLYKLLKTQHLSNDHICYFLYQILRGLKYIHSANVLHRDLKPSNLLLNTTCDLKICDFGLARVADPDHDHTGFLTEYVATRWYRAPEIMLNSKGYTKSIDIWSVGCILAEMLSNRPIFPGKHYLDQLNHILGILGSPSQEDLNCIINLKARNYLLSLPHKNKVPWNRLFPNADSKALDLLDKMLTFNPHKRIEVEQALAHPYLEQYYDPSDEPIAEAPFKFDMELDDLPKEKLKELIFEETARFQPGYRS

| SMILES | Kd (ERK1) | IC50 ([1]; Homo sapiens, 144 h) | IC50 ([2]; Homo sapiens, 144 h) | Kd (ERK2) | IC50 [1] | IC50 [2] |
| --- | --- | --- | --- | --- | --- | --- |
| CC(NC(=O)c1ncc(-c2c[nH]c3ncc(N4CCOCC4)cc23)cn1)c1ccn(C)c1 (stereo not shown) [Compound 24, N-(1-(1-methyl-1H-pyrrol-3-yl)ethyl)-5-(5-morpholino-1H-pyrrolo[2,3-b]pyridin-3-yl)pyrimidine-2-carboxamide] | 11 to 100 nM | > 500 nM | > 500 nM | 11 to 100 nM | – | – |
| CN(Cc1ccccc1)C(=O)c1ncc(-c2c[nH]c3ncc(N4CCOCC4)cc23)cn1 [Compound 8, N-benzyl-N-methyl-5-(5-morpholino-1H-pyrrolo[2,3-b]pyridin-3-yl)pyrimidine-2-carboxamide] | > 100 nM | > 500 nM | > 500 nM | > 100 nM | – | – |
| N#Cc1ccccc1CCNC(=O)c1ncc(-c2c[nH]c3ncc(N4CCOCC4)cc23)cn1 [Compound 66, N-(2-cyanophenethyl)-5-(5-morpholino-1H-pyrrolo[2,3-b]pyridin-3-yl)pyrimidine-2-carboxamide] | ≤ 10 nM | > 500 nM | > 500 nM | ≤ 10 nM | – | – |
| O=C(NCCc1cccc(F)c1)c1ncc(-c2c[nH]c3ncc(N4CCOCC4)cc23)cn1 [Compound 63, N-(3-fluorophenethyl)-5-(5-morpholino-1H-pyrrolo[2,3-b]pyridin-3-yl)pyrimidine-2-carboxamide] | 11 to 100 nM | – | – | 11 to 100 nM | – | – |
| C[C@@H](CNC(=O)c1ncc(-c2c[nH]c3ncc(N4CCOCC4)cc23)cn1)c1ccccc1 [Compound 33] | 11 to 100 nM | – | – | 11 to 100 nM | – | – |
| O=C(NC(c1ccccc1)C(F)(F)F)c1ncc(-c2c[nH]c3ncc(N4CCOCC4)cc23)cn1 (stereo in doubt) [Compound 47, (S)-5-(5-morpholino-1H-pyrrolo[2,3-b]pyridin-3-yl)-N-(2,2,2-trifluoro-1-phenylethyl)pyrimidine-2-carboxamide] | ≤ 10 nM | > 500 nM | 251 to 500 nM | ≤ 10 nM | – | – |
| O=C(NCCc1ccccn1)c1ncc(-c2c[nH]c3ncc(N4CCOCC4)cc23)cn1 [Compound 60, 5-(5-morpholino-1H-pyrrolo[2,3-b]pyridin-3-yl)-N-(2-(pyridin-2-yl)ethyl)pyrimidine-2-carboxamide] | 11 to 100 nM | > 500 nM | > 500 nM | 11 to 100 nM | – | – |
| O=C(NCCc1ccccc1)c1ccc(-c2c[nH]c3ncc(N4CCOCC4)cc23)nc1 [Compound 9, 6-(5-morpholino-1H-pyrrolo[2,3-b]pyridin-3-yl)-N-phenethylnicotinamide] | > 100 nM | > 500 nM | > 500 nM | > 100 nM | – | – |
| CC(NC(=O)c1ncc(-c2c[nH]c3ncc(Br)cc23)cn1)c1ccccc1 (stereo in doubt) [Compound 67, (R)-5-(5-bromo-1H-pyrrolo[2,3-b]pyridin-3-yl)-N-(1-phenylethyl)pyrimidine-2-carboxamide] | 11 to 100 nM | > 500 nM | > 500 nM | 11 to 100 nM | – | – |
| c1ccc([C@H]2CN=C(c3ncc(-c4c[nH]c5ncc(N6CCOCC6)cc45)cn3)O2)cc1 [Compound 55, (S)-4-(3-(2-(5-phenyl-4,5-dihydrooxazol-2-yl)pyrimidin-5-yl)-1H-pyrrolo[2,3-b]pyridin-5-yl)morpholine] | 11 to 100 nM | > 500 nM | > 500 nM | 11 to 100 nM | – | – |
| C[C@H](NC(=O)c1ncc(-c2c[nH]c3ncc(-c4ccncc4)cc23)cn1)c1ccccc1 [Compound 39, (S)—N-(1-phenylethyl)-5-(5-(pyridin-4-yl)-1H-pyrrolo[2,3-b]pyridin-3-yl)pyrimidine-2-carboxamide] | ≤ 10 nM | > 500 nM | ≤ 250 nM | ≤ 10 nM | – | – |
| CC(NC(=O)c1ncc(-c2c[nH]c3ncc(N4CCC45COC5)cc23)cn1)c1ccccc1 (stereo in doubt) [Compound 43, (R)-5-(5-(6-oxa-1-azaspiro[3.3]heptan-6-yl)-1H-pyrrolo[2,3-b]pyridin-3-yl)-N-(1-phenylethyl)pyrimidine-2-carboxamide] | 11 to 100 nM | > 500 nM | > 500 nM | > 100 nM | – | – |
| O=C(NC(c1ccccc1)C1CC1)c1ncc(-c2c[nH]c3ncc(N4CCOCC4)cc23)cn1 (stereo not shown) [Compound 49, N-(cyclopropyl(phenyl)methyl)-5-(5-morpholino-1H-pyrrolo[2,3-b]pyridin-3-yl)pyrimidine-2-carboxamide] | ≤ 10 nM | > 500 nM | 251 to 500 nM | ≤ 10 nM | – | – |
| CCN1C[C@H](c2ccccc2)N=C1c1ncc(-c2c[nH]c3ncc(N4CCOCC4)cc23)cn1 [Compound 51, (S)-4-(3-(2-(1-ethyl-4-phenyl-4,5-dihydro-1H-imidazol-2-yl)pyrimidin-5-yl)-1H-pyrrolo[2,3-b]pyridin-5-yl)morpholine] | 11 to 100 nM | > 500 nM | 251 to 500 nM | 11 to 100 nM | – | – |
| C[C@H](NC(=O)c1ncc(-c2c[nH]c3ncc(NCCO)cc23)cn1)c1ccccc1 [Compound 68] | 11 to 100 nM | – | – | 11 to 100 nM | – | – |
| c1ccc([C@@H]2COC(c3ncc(-c4c[nH]c5ncc(N6CCOCC6)cc45)cn3)=N2)cc1 [Compound 52, (R)-4-(3-(2-(4-phenyl-4,5-dihydrooxazol-2-yl)pyrimidin-5-yl)-1H-pyrrolo[2,3-b]pyridin-5-yl)morpholine] | – | – | – | – | > 500 nM | > 500 nM |
| c1ccc([C@@H]2CN=C(c3ncc(-c4c[nH]c5ncc(N6CCOCC6)cc45)cn3)O2)cc1 [Compound 54, (R)-4-(3-(2-(5-phenyl-4,5-dihydrooxazol-2-yl)pyrimidin-5-yl)-1H-pyrrolo[2,3-b]pyridin-5-yl)morpholine] | – | – | – | – | > 500 nM | – |
| COc1cc(-c2cnc3[nH]cc(-c4cnc(C(=O)NC(C)c5ccccc5)nc4)c3c2)ccn1 (stereo in doubt) [Compound 41, (R)-5-(5-(2-methoxypyridin-4-yl)-1H-pyrrolo[2,3-b]pyridin-3-yl)-N-(1-phenylethyl)pyrimidine-2-carboxamide] | ≤ 10 nM | > 500 nM | ≤ 250 nM | ≤ 10 nM | – | – |
| O=C(NCCc1ccccc1F)c1ncc(-c2c[nH]c3ncc(N4CCOCC4)cc23)cn1 [Compound 58, N-(2-fluorophenethyl)-5-(5-morpholino-1H-pyrrolo[2,3-b]pyridin-3-yl)pyrimidine-2-carboxamide] | ≤ 10 nM | – | – | ≤ 10 nM | – | – |
| O=C(Nc1ccccc1)c1ncc(-c2c[nH]c3ncc(N4CCOCC4)cc23)cn1 [Compound 23, 5-(5-morpholino-1H-pyrrolo[2,3-b]pyridin-3-yl)-N-phenylpyrimidine-2-carboxamide] | > 100 nM | – | – | > 100 nM | – | – |
| C[C@H](NC(=O)c1ncc(-c2c[nH]c3ncc(N4CCOCC4)cc23)cn1)c1ccccc1C#N [Compound 48, (S)—N-(1-(2-cyanophenyl)ethyl)-5-(5-morpholino-1H-pyrrolo[2,3-b]pyridin-3-yl)pyrimidine-2-carboxamide] | ≤ 10 nM | – | – | 11 to 100 nM | – | – |
| C[C@@H](Cc1ccccc1)NC(=O)c1ncc(-c2c[nH]c3ncc(N4CCOCC4)cc23)cn1 [Compound 30, (S)-5-(5-morpholino-1H-pyrrolo[2,3-b]pyridin-3-yl)-N-(1-phenylpropan-2-yl)pyrimidine-2-carboxamide] | > 100 nM | – | – | > 100 nM | – | – |
| O=C(NCCc1cccc(C(F)(F)F)c1)c1ncc(-c2c[nH]c3ncc(N4CCOCC4)cc23)cn1 [Compound 64, 5-(5-morpholino-1H-pyrrolo[2,3-b]pyridin-3-yl)-N-(3-(trifluoromethyl)phenethyl)pyrimidine-2-carboxamide] | 11 to 100 nM | – | – | 11 to 100 nM | – | – |
| O=C(NCCc1ccccc1C(F)(F)F)c1ncc(-c2c[nH]c3ncc(N4CCOCC4)cc23)cn1 [Compound 59, 5-(5-morpholino-1H-pyrrolo[2,3-b]pyridin-3-yl)-N-(2-(trifluoromethyl)phenethyl)pyrimidine-2-carboxamide] | 11 to 100 nM | – | – | ≤ 10 nM | – | – |
